The target in assay [1] is T1, cloned human B1 bradykinin receptor in transiently transfected COS-7 cells (COS 33E9) (Homo sapiens, UniProt P46663).
T1 construct: the full-length open reading frame of the B1 DNA (encoding a protein of about 40.4 kDa =about base 209 to about base 1267); expressed in transfected cells; host or cells: COS-7 cells, transient electroporation of clone 33E9 (pcDNA3 library vector)
T1 sequence (P46663 1-353): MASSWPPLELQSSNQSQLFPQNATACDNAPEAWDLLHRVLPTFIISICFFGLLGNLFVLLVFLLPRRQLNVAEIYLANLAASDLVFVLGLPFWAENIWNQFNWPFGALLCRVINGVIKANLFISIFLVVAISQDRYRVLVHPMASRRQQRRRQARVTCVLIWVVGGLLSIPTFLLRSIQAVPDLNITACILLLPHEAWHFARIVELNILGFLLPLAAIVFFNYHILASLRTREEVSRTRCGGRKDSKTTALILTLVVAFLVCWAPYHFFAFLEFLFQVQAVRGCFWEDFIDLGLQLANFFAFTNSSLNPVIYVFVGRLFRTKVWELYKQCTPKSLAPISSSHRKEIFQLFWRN
Description: Displacement of 1 nM [3H]des-Arg10kallidin, membrane binding assay, COS 33E9. The following applies: for affinity for / displacement of [3H]des-Arg10kallidin from the cloned receptor, in words: cloned B1 receptor expressed in COS-7 cells. The method, then: Transient expression of the cloned B1 bradykinin receptor in COS-7 cells was accomplished by electroporation using a Biorad Gene Pulser. […] Binding assays were performed at room temperature for 45 minutes. Reactions were terminated by filtration using an Inotech cell harvester onto glass fiber filters (Inotech) that had been briefly soaked in 0.3% polyethyleneimine. The filters were washed five times with 1 ml per well of cold PBS and counted in a liquid scintillation counter. Alternatively, reactions were collected using a Tomtec cell harvester 96 onto 0.3% polyethyleneimine presoaked glass fiber filters (Pharmacia, printed filtermat for use with the 1205 Betaplate). The filter was washed five times with a total of 10 ml per well of cold 1× PBS, dried and sealed in a bag (Pharmacia) containing scintillation fluid. Counting was accomplished using a LKB1205 Betaplate liquid scintillation counter.
In general terms: In a radioligand displacement assay an active substance lowers the binding of a labelled ligand.

The target of assay [2] is T2, B1 receptor in IMR-90 cells (Homo sapiens, UniProt P46663).
T2 construct: 33E9) with the B1 receptor in IMR-90 cells (IMR-90); endogenous in cells; host or cells: IMR-90 cells (ATCC CCL 186)
T2 sequence (P46663 1-353): T1 sequence (P46663 1-353)
Description: Displacement of 1 nM [3H]des-Arg10kallidin, membrane binding assay, IMR-90.

Another assay concerns IMR-90 cells. Description: IL-1beta treatment of IMR-90 cells, number of B1 bradykinin receptors. It is filed as cell-based, human.
Assay [3] addresses T3, B1 bradykinin receptor present in human aorta (Homo sapiens, UniProt P46663).
T3 construct: The B1 bradykinin receptor present in human aorta; from tissue; host or cells: human aorta
T3 sequence (P46663 1-353): T1 sequence (P46663 1-353)
Description: Affinity at B1 bradykinin receptor present in human aorta. The format is binding. The settings on record: R.W.R, unpublished data.

In assay [4] the target is cloned human B1 bradykinin receptor (clone 33E9) (human) (UniProt P46663). Kind of assay: displacement of 1 nM [3H]des-Arg10kallidin, membrane binding assay, COS-7 cells transiently transfected with clone 33E9.
Assay [5] has as its target T4, B1 bradykinin receptor in IMR-90 cells (human, UniProt P46663 1-353).
T4 construct: whole, on cells; Endogenous receptor; also called B1 receptor expressed in IMR-90 cells
T4 sequence (looked up): T1 sequence (P46663 1-353)
Description: displacement of 1 nM [3H]des-Arg10kallidin, membrane binding assay, IMR-90 cells. The protocol: Binding assays were performed at room temperature for 45 minutes. Reactions were terminated by filtration using an Inotech cell harvester onto glass fiber filters (Inotech) that had been briefly soaked in 0.3% polyethyleneimine. The filters were washed five times with 1 ml per well of cold PBS and counted in a liquid scintillation counter. Alternatively, reactions were collected using a Tomtec cell harvester 96 onto 0.3% polyethyleneimine presoaked glass fiber filters (Pharmacia, printed filtermat for use with the 1205 Betaplate). The filter was washed five times with a total of 10 ml per well of cold 1× PBS, dried and sealed in a bag (Pharmacia) containing scintillation fluid. Counting was accomplished using a LKB₁₂₀₅ Betaplate liquid scintillation counter.
The IC₅₀'s were determined by the displacement of 1 nM [³H]des- Arg¹⁰kallidin in the membrane binding assay described above.

In another assay the target is T5, B1 receptor (Homo sapiens, UniProt P46663).
T5 construct: expressed in transfected cells; host or cells: Xenopus laevis oocytes injected with cRNA from a pool of about 800 library clones
T5 sequence (P46663 1-353): T1 sequence (P46663 1-353)
Description: Electrophysiology of cRNA-injected Xenopus oocytes monitoring the Ca2+ sensitive Cl- channel. The format is cell-based. The settings on record: oocytes injected with cRNA of strongest positive pool.

The mark [6] stands for this setting: displacement of 1 nM [3H]des-Arg10kallidin, membranes of transiently transfected COS-7 cells, read-out: IC50, COS 33E9.
[7] abbreviates: displacement of 1 nM [3H]des-Arg10kallidin, IMR-90 membranes, read-out: IC50, IMR-90.

“Also recorded” adds a separate entry of the source. Where two headings read alike, the source gives them in different places. Residues, ends and D or L forms follow the SMILES beside them.

These results are taken from patent US20030036633A1, “DNA encoding bradykinin B1 receptor” (Merck & Co., Inc., priority 1994, published 2003).

For orientation: IC50 means the point on the concentration scale where inhibition reaches its midpoint. On to `CC[C@H](C)[C@H](NC(=O)[C@H](Cc1ccc(O)cc1)NC(=O)[C@@H]1CCCN1C(=O)[C@H](CCCNC(=N)N)NC(=O)[C@H](CCCNC(=N)N)NC(C)=O)C(=O)N[C@@H](CC(C)C)C(=O)O` [Acetylated Neurotensin(8-13)], for which the IC50 in assay [1] and in assay [2] was over 10 µM throughout.

For `CC[C@H](C)[C@H](NC(=O)[C@H](Cc1ccc(O)cc1)NC(=O)[C@@H](NC(=O)[C@H](CCCNC(=N)N)NC(=O)[C@@H](N)CC(=O)O)C(C)C)C(=O)N[C@@H](Cc1cnc[nH]1)C(=O)N1CCC[C@H]1C(=O)N[C@@H](Cc1ccccc1)C(=O)O` [Angiotensin II], the IC50 in assay [1] (setting [6]) and in assay [2] (setting [7]) was over 10 µM each time.

As for `NC(=O)CC[C@@H]1NC(=O)[C@H](Cc2ccccc2)NC(=O)[C@H](Cc2ccc(O)cc2)NC(=O)[C@@H](N)CSSC[C@@H](C(=O)N2CCC[C@H]2C(=O)N[C@@H](CCCN=C(N)N)C(=O)NCC(N)=O)NC(=O)[C@H](CC(N)=O)NC1=O` [Arg Vasopressin], the IC50 in assay [1] and in assay [2] was over 10 µM throughout.

In the case of `N=C(N)NCCC[C@H](N)C(=O)N1CCC[C@H]1C(=O)N1CCC[C@H]1C(=O)NCC(=O)N[C@@H](Cc1ccccc1)C(=O)N[C@@H](CO)C(=O)N1CCC[C@H]1C(=O)O` [Bradykinin(1-7)] (H-RPPGFSP-OH), the IC50 in assay [1] and in assay [2] was over 10 µM each time.

With `N=C(N)NCCC[C@H](NC(=O)[C@H](Cc1ccccc1)NC(=O)[C@@H]1CCCN1C(=O)[C@H](CO)NC(=O)[C@H](Cc1ccccc1)NC(=O)CNC(=O)[C@@H]1CCCN1C(=O)[C@@H]1CCCN1)C(=O)O` [Bradykinin(2-9)] (H-PPGFSPFR-OH; N-terminus and C-terminus assumed), the IC50 in assay [1] (setting [6]) and in assay [2] (setting [7]) was over 10 µM each time.

As for `NC(N)=NCCC[C@H](NC(=O)[C@H](Cc1ccccc1)NC(=O)[C@@H]1CCCN1C(=O)[C@H](CO)NC(=O)[C@H](Cc1ccccc1)NC(=O)CNC(=O)[C@@H]1CCCN1C(=O)[C@@H]1CCCN1C(=O)[C@@H](N)CCCN=C(N)N)C(=O)O` [Bradykinin] (H-RPPGFSPFR-OH), the IC50 in assay [1] and in assay [2] was over 10 µM throughout.

For `CC[C@H](C)[C@H](NC(=O)[C@H](CCCNC(=N)N)NC(=O)[C@H](CCCNC(=N)N)NC(=O)[C@H](CC(C)C)NC(=O)[C@H](Cc1ccccc1)NC(=O)CNC(=O)CNC(=O)[C@@H](N)Cc1ccc(O)cc1)C(=O)N[C@@H](CCCNC(=N)N)C(=O)N1CCC[C@H]1C(=O)N[C@@H](CCCCN)C(=O)N[C@@H](CC(C)C)C(=O)N[C@@H](CCCCN)C(=O)N[C@@H](Cc1c[nH]c2ccccc12)C(=O)N[C@@H](CC(=O)O)C(=O)N[C@@H](CC(N)=O)C(=O)N[C@@H](CCC(N)=O)C(=O)O` [Dynorphin(1-17)], the IC50 in assay [1] and in assay [2] was over 7 µM in each case.

`CC[C@H](C)[C@H](NC(=O)[C@H](CC(=O)O)NC(=O)[C@H](CC(C)C)NC(=O)[C@H](Cc1cnc[nH]1)NC(=O)[C@@H]1CSSC[C@H](N)C(=O)N[C@@H](CO)C(=O)N[C@H]2CSSC[C@H](NC(=O)[C@H](CCC(=O)O)NC(=O)[C@H](CCCCN)NC(=O)[C@H](CC(=O)O)NC(=O)[C@H](CCSC)NC(=O)[C@H](CC(C)C)NC(=O)[C@H](CO)NC(=O)[C@H](CO)NC2=O)C(=O)N[C@@H](C(C)C)C(=O)N[C@@H](Cc2ccc(O)cc2)C(=O)N[C@@H](Cc2ccccc2)C(=O)N1)C(=O)N[C@H](C(=O)N[C@@H](Cc1c[nH]c2ccccc12)C(=O)O)[C@@H](C)CC` [Endothelin I]: the IC50 in assay [1] (setting [6]) and in assay [2] (setting [7]) was over 1 µM each time.

Regarding `NC(N)=NCCC[C@@H](N)C(=O)N[C@@H](CCCN=C(N)N)C(=O)N1CCC[C@H]1C(=O)N1C[C@H](O)C[C@H]1C(=O)NCC(=O)N[C@@H](Cc1cccs1)C(=O)N[C@@H](CO)C(=O)N1Cc2ccccc2C[C@@H]1C(=O)N1[C@H](C(=O)N[C@@H](CCCN=C(N)N)C(=O)O)C[C@@H]2CCCC[C@@H]21` [Hoe 140], the IC50 in assay [1] (setting [6]) and in assay [2] (setting [7]) was over 10 µM in each case.

Consider `CC(C)C[C@H](NC(=O)[C@H](Cc1ccccc1)NC(=O)CNC(=O)CNC(=O)[C@@H](N)Cc1ccc(O)cc1)C(=O)O` [Leu-Enkephalin], for which the IC50 in assay [1] and in assay [2] was over 10 µM each time.

Turning to `CC[C@H](C)[C@@H]1NC(=O)[C@H](Cc2ccc(O)cc2)NC(=O)[C@@H](N)CSSC[C@@H](C(=O)N2CCC[C@H]2C(=O)N[C@@H](CC(C)C)C(=O)NCC(N)=O)NC(=O)[C@H](CC(N)=O)NC(=O)[C@H](CCC(N)=O)NC1=O` [Oxytocin], the IC50 in assay [1] (setting [6]) and in assay [2] (setting [7]) was over 10 µM in each case.

Take `CSCC[C@H](NC(=O)[C@H](CC(C)C)NC(=O)CNC(=O)[C@H](Cc1ccccc1)NC(=O)[C@H](Cc1ccccc1)NC(=O)[C@H](CCC(N)=O)NC(=O)[C@H](CCC(N)=O)NC(=O)[C@@H]1CCCN1C(=O)[C@H](CCCCN)NC(=O)[C@@H]1CCCN1C(=O)[C@@H](N)CCCN=C(N)N)C(N)=O` [Substance P]: the concentration for half-maximal inhibition (IC50) in assay [1] (setting [6]) and in assay [2] (setting [7]) was over 10 µM each time.

IL-1β: cytokine IL-1β (R & D Systems): in the assay on IMR-90 cells, the “stimulation of the number of B1 bradykinin receptors” value is “approximately 7 fold”.

With “[des-Arg^10],[3,4-^3H(N)]-kallidin [[^3H]des-Arg^10kallidin]”, in assay [1], the “affinity for / displacement of [3H]des-Arg10kallidin from the cloned receptor, in words” value (“affinity for / displacement” for short) is reported as “high affinity binding”.

Turning to des-Arg^9Leu^8bradykinin, the “affinity for / displacement” value in assay [1] is listed as “high affinity binding”.

The molecule des-Arg^9bradykinin yielded an affinity in assay [3] of over 1000 nM. In addition, in assay [1], the “affinity for / displacement” value is recorded as “relatively low affinity”. Further, the “affinity for the B1 receptor in IMR-90 cells, in words” value in assay [2] (IMR-90 cells) is on record as “relatively low affinity”.

As to des-Arg^10HOE 140 (peptide), the IC50 in assay [4] is 0.094 µM; in assay [5], 0.04 µM.

For des-Arg^10Leu^9kallidin, the “block of des-Arg10kallidin response” value on B1 receptor is given as “blocked”. In addition, the “affinity for / displacement” value in assay [1] was “high affinity binding; also recorded: effectively displaces”.

As to des-Arg^10kallidin, on B1 receptor, the “agonist response of Ca2+ sensitive Cl- channel” value was “produced a response”.
